In one test the test system is P. falciparum D6. The conditions noted are these: read-out: asexual blood-stage vs. P. falciparum D6 IC50; cited from earlier work.
The test system of test [1] is P. falciparum stage V gametocytes. The experiment in a line: gametocytocidal assay using late-stage gametocytes. In kind it is cell-based. The conditions noted are these: Plasmodium falciparum, read-out: sexual blood-stage vs. P. falciparum stage V gametocytes IC50.
The next test has as its system P. yoelii. Put plainly: in vivo blood-stage efficacy in the P. yoelii mouse model. The arrangement: species or system Plasmodium yoelii.

In general, IC50 refers to the point on the concentration scale where inhibition reaches its midpoint. For the compound `O=C1C(O)=C([C@H]2CC[C@H](c3ccc(Cl)cc3)CC2)C(=O)c2ccccc21` [ATQ, Atovaquone], in the test with P. falciparum D6, the half-maximal inhibitory concentration (IC50) is 0.1 nM. Regarding `CN(C)c1ccc2nc3ccc(=[N+](C)C)cc-3sc2c1` [methylene blue], the IC50 in test [1] came out at 143 nM.

On to `CCN(CC)CCCC(C)Nc1ccnc2cc(Cl)ccc12` (stereo not shown) [CQ, chloroquine], for which the “in vivo %parasitemia reduction vs. controls on day 5” value with P. yoelii (25 mg/kg/4d oral) and with P. yoelii (50 mg/kg/4d oral) was 100% in each case.

These data come from article PMC11645189 (ACS infectious diseases, 2024).
